ChEMBL document CHEMBL3751824, “Design, synthesis, and docking studies of phenylpicolinamide derivatives bearing 1H-pyrrolo[2,3-b]pyridine moiety as c-Met inhibitors” (Bioorg Med Chem, 2016)

Tests used:
A549 = assay: Cytotoxicity against human A549 cells after 72 hrs by MTT assay; conditions: A549, 72 h
cells = conditions: Homo sapiens, PC-3, 72 h
Description: Cytotoxicity against human PC3 cells after 72 hrs by MTT assay

MCF7 = assay: cells; conditions: Homo sapiens, MCF7, 72 h
Description: Cytotoxicity against human MCF7 cells after 72 hrs by MTT assay

[1] = biological target: Hepatocyte growth factor receptor (Homo sapiens, UniProt P08581); assay: Inhibition of c-Met (unknown origin) by mobility shift assay
Hepatocyte growth factor receptor, sequence (P08581 whole entry): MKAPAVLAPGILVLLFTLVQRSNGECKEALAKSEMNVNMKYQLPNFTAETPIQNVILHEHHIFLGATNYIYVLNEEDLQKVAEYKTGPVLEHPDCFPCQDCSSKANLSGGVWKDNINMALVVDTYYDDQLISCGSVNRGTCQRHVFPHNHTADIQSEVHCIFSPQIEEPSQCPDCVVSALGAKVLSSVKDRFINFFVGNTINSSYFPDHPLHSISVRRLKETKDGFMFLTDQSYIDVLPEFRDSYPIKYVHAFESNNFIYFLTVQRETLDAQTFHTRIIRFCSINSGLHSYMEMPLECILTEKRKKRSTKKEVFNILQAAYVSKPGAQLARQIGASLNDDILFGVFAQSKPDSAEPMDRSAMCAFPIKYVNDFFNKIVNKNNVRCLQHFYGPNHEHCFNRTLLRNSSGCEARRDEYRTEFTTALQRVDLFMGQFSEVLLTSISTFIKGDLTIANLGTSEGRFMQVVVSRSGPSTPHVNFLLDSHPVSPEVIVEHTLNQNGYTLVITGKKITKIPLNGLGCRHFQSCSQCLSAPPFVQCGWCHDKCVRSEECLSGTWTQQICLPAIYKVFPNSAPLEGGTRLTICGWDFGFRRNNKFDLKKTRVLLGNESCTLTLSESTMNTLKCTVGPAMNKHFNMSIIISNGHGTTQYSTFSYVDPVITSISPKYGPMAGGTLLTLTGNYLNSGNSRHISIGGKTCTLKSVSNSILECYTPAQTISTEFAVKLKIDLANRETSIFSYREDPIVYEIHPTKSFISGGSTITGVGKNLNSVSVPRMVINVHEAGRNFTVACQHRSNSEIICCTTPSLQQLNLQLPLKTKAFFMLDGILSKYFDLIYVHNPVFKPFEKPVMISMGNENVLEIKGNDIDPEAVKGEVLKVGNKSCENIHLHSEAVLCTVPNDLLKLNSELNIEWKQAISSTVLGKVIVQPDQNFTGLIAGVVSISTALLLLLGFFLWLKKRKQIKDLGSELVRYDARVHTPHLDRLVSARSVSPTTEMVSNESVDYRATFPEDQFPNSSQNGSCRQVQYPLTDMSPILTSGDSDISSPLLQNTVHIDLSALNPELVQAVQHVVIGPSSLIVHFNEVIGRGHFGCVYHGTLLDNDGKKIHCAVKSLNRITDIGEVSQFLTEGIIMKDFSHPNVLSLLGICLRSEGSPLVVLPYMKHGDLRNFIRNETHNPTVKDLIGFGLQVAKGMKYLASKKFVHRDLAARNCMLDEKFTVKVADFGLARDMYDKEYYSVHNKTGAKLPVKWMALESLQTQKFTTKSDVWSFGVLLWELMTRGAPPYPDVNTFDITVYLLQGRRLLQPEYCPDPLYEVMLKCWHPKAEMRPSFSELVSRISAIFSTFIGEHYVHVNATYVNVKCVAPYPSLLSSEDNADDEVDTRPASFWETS

HeLa = assay: Cytotoxicity against human HeLa cells after 72 hrs by MTT assay
HepG2 = assay: Cytotoxicity against human HepG2 cells after 72 hrs by MTT assay; conditions: HepG2, 72 h

| SMILES | IC50 (A549) | IC50 (cells) | IC50 (MCF7) | IC50 [1] | IC50 (HeLa) | IC50 (HepG2) |
| --- | --- | --- | --- | --- | --- | --- |
| Cc1ccc(-c2ccc(C(=O)Nc3ccc(Oc4ccnc5[nH]ccc45)c(F)c3)nc2)cc1 | 2.3 µM | 2.64 µM | 8.02 µM |  |  |  |
| O=C(Nc1ccc(Oc2ccnc3[nH]ccc23)cc1)c1cc(-c2ccc(C(F)(F)F)cc2)ccn1 | 3.95 µM | 14.2 µM | > 10 µM | > 10 µM |  |  |
| Cc1ccc(-c2ccnc(C(=O)Nc3ccc(Oc4ccnc5[nH]ccc45)cc3)c2)cc1 | > 10 µM | > 10 µM | > 10 µM |  |  |  |
| O=C(Nc1ccc(Oc2ccnc3[nH]ccc23)c(F)c1)c1cc(-c2ccc(F)cc2F)ccn1 | > 10 µM | > 10 µM | > 10 µM | > 10 µM |  |  |
| Cc1ccc(-c2ccnc(C(=O)Nc3ccc(Oc4ccnc5[nH]ccc45)c(F)c3)c2)cc1 | 3.12 µM | 3.97 µM | 8.43 µM |  |  |  |
| O=C(Nc1ccc(Oc2ccnc3[nH]ccc23)cc1)c1ccc(-c2ccc(Cl)cc2)cn1 | > 10 µM | > 10 µM | > 10 µM | > 10 µM |  |  |
| O=C(Nc1ccc(Oc2ccnc3[nH]ccc23)c(F)c1)c1ccc(-c2ccc(Cl)cc2)cn1 | 10 µM | 3.03 µM | > 10 µM |  |  |  |
| Cc1ccc(-c2ccnc(C(=O)Nc3ccc(Oc4ccnc5[nH]ccc45)c(F)c3)c2)c(C)c1 | 4.35 µM | 4.01 µM | 6.22 µM |  | 11.9 µM | 13.3 µM |
| O=C(Nc1ccc(Oc2ccnc3[nH]ccc23)cc1)c1cc(-c2ccccc2)ccn1 | 2.92 µM | 3.27 µM | 3.75 µM |  |  |  |
| COc1ccc(-c2ccc(C(=O)Nc3ccc(Oc4ccnc5[nH]ccc45)cc3)nc2)cc1 | > 10 µM | > 10 µM | > 10 µM |  |  |  |
| O=C(Nc1ccc(Oc2ccnc3[nH]ccc23)c(F)c1)c1cc(-c2ccc(F)cc2)ccn1 | 1.09 µM | 0.71 µM | 9.52 µM |  |  |  |
| O=C(Nc1ccc(Oc2ccnc3[nH]ccc23)c(F)c1)c1cc(-c2ccc(C(F)(F)F)cc2)ccn1 | 4.92 µM | 4.35 µM | 8.55 µM | > 10 µM |  |  |
| O=C(Nc1ccc(Oc2ccnc3[nH]ccc23)c(F)c1)c1ccc(-c2ccc(F)cc2F)cn1 | 3.1 µM | 4.72 µM | > 10 µM |  |  |  |
| O=C(Nc1ccc(Oc2ccnc3[nH]ccc23)c(F)c1)c1ccc(-c2ccccc2)cn1 | 1.25 µM | 0.76 µM | 4.39 µM | > 10 µM |  |  |
| O=C(Nc1ccc(Oc2ccnc3[nH]ccc23)cc1)c1ccc(-c2ccc(F)cc2F)cn1 | > 10 µM | > 10 µM | > 10 µM | > 10 µM |  |  |
| CCc1ccc(-c2ccc(C(=O)Nc3ccc(Oc4ccnc5[nH]ccc45)cc3)nc2)cc1 | > 10 µM | > 10 µM | > 10 µM | > 10 µM |  |  |
| COc1ccc(-c2ccnc(C(=O)Nc3ccc(Oc4ccnc5[nH]ccc45)cc3)c2)cc1 | 6.97 µM | 9.62 µM | 8.21 µM |  | 7.53 µM | 11.7 µM |
| O=C(Nc1ccc(Oc2ccnc3[nH]ccc23)cc1)c1cc(-c2ccc(Cl)cc2)ccn1 | 4.31 µM | 25.1 µM | > 10 µM |  |  |  |
| Cc1cccc(-c2ccnc(C(=O)Nc3ccc(Oc4ccnc5[nH]ccc45)cc3)c2)c1 | 7.01 µM | 5.47 µM | 7.47 µM |  |  |  |
| Cc1ccc(-c2ccc(C(=O)Nc3ccc(Oc4ccnc5[nH]ccc45)cc3)nc2)cc1 | > 10 µM | > 10 µM | > 10 µM |  |  |  |
| COc1ccc(-c2ccc(C(=O)Nc3ccc(Oc4ccnc5[nH]ccc45)c(F)c3)nc2)cc1 | 2.24 µM | 0.65 µM | 10.1 µM | > 10 µM |  |  |
| Cc1cccc(-c2ccnc(C(=O)Nc3ccc(Oc4ccnc5[nH]ccc45)c(F)c3)c2)c1 | 1.75 µM | 0.86 µM | 9.12 µM |  | 10.3 µM | 11.2 µM |
| CCc1ccc(-c2ccnc(C(=O)Nc3ccc(Oc4ccnc5[nH]ccc45)c(F)c3)c2)cc1 | 3.37 µM | 2.96 µM | 7.47 µM |  | 8.63 µM | 10.4 µM |
| O=C(Nc1ccc(Oc2ccnc3[nH]ccc23)c(F)c1)c1cc(-c2ccccc2)ccn1 | 4.95 µM | > 10 µM | > 10 µM | > 10 µM |  |  |
| COc1ccc(-c2ccnc(C(=O)Nc3ccc(Oc4ccnc5[nH]ccc45)c(F)c3)c2)cc1 | 1.04 µM | 0.02 µM | 9.11 µM |  | 5.89 µM | 13.3 µM |
| O=C(Nc1ccc(Oc2ccnc3[nH]ccc23)c(F)c1)c1ccc(-c2ccc(F)cc2)cn1 | 6.01 µM | 13.4 µM | > 10 µM | > 10 µM |  |  |
